Molecular target: ERα (Homo sapiens (Human), UniProt P03372)
Assay: Estrogen receptor degradation activity: breast cancer cell ERα in cell western assay
Format: cell-based
Details: MCF7 cells; for % Degradation At 0.3 μM: 4 hours, normalised to fulvestrant 0.1 μM and DMSO
In short: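 MCF7 cells in phenol-red-free medium with 5% charcoal-stripped FBS, treated 4 h with 9-point 1:5 dilutions (0.3-0.0000018 μM final). ERα measured by in-cell western (anti-ER antibody, Alexa 488), normalized to Syto-64 DNA stain; % decrease scaled DMSO to 0.1 μM fulvestrant, IC50 in nM.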

[1] = 4 hours post compound addition, concentration which degrades 50% of the estrogen receptor

Sequence of ERα (P03372 whole entry): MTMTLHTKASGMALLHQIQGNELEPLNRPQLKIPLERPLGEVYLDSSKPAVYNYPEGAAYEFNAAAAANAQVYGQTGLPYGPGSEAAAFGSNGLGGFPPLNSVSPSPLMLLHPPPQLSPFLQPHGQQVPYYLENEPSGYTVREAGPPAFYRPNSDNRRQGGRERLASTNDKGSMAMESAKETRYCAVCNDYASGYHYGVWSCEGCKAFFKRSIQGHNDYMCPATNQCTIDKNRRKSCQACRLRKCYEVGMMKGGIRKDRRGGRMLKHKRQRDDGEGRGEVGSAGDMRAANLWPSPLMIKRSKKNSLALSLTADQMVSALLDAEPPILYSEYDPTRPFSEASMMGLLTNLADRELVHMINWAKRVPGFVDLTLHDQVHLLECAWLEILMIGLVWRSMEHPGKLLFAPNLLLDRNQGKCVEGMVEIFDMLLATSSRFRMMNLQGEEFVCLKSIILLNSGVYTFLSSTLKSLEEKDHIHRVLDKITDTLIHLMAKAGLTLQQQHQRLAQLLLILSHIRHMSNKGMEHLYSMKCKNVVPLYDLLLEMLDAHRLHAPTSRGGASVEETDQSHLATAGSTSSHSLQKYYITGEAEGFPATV

| % Degradation At 0.3 μM | IC50 [1] | DC50 (4 hours post compound addition, concentration which degrades 50% of the estrogen receptor, read-out: Degradation IC50) | SMILES |
| --- | --- | --- | --- |
| 94% | 0.5 nM | – | COc1cccc(F)c1C1=C(c2ccc(C=C3CN(CCCF)C3)cc2)c2ccc(C(=O)O)cc2CCC1 [Compound 22, 8-(2-fluoro-6-methoxyphenyl)-9-(4-((1-(3-fluoropropyl)azetidin-3-ylidene)methyl)phenyl)-6,7-dihydro-5H-benzo[7]annulene-3-carboxylic acid] |
| 92% | – | 0.2 nM | O=C(O)c1ccc2c(c1)CCCC(C1CC13CCC3)=C2c1ccc(C=C2CN(CCCF)C2)cc1 (single isomer, unassigned) [Compound 36, 9-(4-((1-(3-fluoropropyl)azetidin-3-ylidene)methyl)phenyl)-8-(spiro[2.3]hexan-1-yl)-6,7-dihydro-5H-benzo[7]annulene-3-carboxylic acid] |
| 90% | 1 nM | – | O=C(O)c1ccc2c(c1)CCCC(c1ccc(F)c(F)c1C(F)(F)F)=C2c1ccc(C=C2CN(CCCF)C2)cc1 [Compound 2, 8-(3,4-difluoro-2-(trifluoromethyl)phenyl)-9-(4-((1-(3-fluoropropyl)azetidin-3-ylidene)methyl)phenyl)-6,7-dihydro-5H-benzo[7]annulene-3-carboxylic acid] |
| 95% | 37.8 nM | – | COc1cc(C2=C(c3ccc(C=C4CN(CCCF)C4)cc3)c3ccc(C(=O)O)cc3CCC2)ccc1C(F)F [Compound 31, 8-(4-(difluoromethyl)-3-methoxyphenyl)-9-(4-((1-(3-fluoropropyl)azetidin-3-ylidene)methyl)phenyl)-6,7-dihydro-5H-benzo[7]annulene-3-carboxylic acid] |
| 90% | 1.1 nM | – | COc1cccc(C)c1C1=C(c2ccc(C=C3CN(CCCF)C3)cc2)c2ccc(C(=O)O)cc2CCC1 [Compound 4, 9-(4-((1-(3-fluoropropyl)azetidin-3-ylidene)methyl)phenyl)-8-(2-methoxy-6-methylphenyl)-6,7-dihydro-5H-benzo[7]annulene-3-carboxylic acid] |
| 91% | 0.5 nM | – | Cc1c(OC(F)(F)F)cccc1C1=C(c2ccc(C=C3CN(CCCF)C3)cc2)c2ccc(C(=O)O)cc2CCC1 [Compound 24, 9-(4-((1-(3-fluoropropyl)azetidin-3-ylidene)methyl)phenyl)-8-(2-methyl-3-(trifluoromethoxy)phenyl)-6,7-dihydro-5H-benzo[7]annulene-3-carboxylic acid] |

Second part, the compound before the results:

| SMILES | % Degradation At 0.3 μM | IC50 [1] | DC50 (4 hours post compound addition, concentration which degrades 50% of the estrogen receptor, read-out: Degradation IC50) |
| --- | --- | --- | --- |
| O=C(O)c1ccc2c(c1)CCCC(c1cccc(F)c1CF)=C2c1ccc(C=C2CN(CCCF)C2)cc1 [Compound 38, 8-(3-fluoro-2-(fluoromethyl)phenyl)-9-(4-((1-(3-fluoropropyl)azetidin-3-ylidene)methyl)phenyl)-6,7-dihydro-5H-benzo[7]annulene-3-carboxylic acid] | 90% | 0.4 nM | – |
| CCc1c(F)cccc1C1=C(c2ccc(C=C3CN(CCCF)C3)cc2)c2ccc(C(=O)O)cc2CCC1 [Compound 39, 8-(2-ethyl-3-fluorophenyl)-9-(4-((1-(3-fluoropropyl)azetidin-3-ylidene)methyl)phenyl)-6,7-dihydro-5H-benzo[7]annulene-3-carboxylic acid] | 92% | 0.3 nM | – |
| CC1(C)CCC(C2=C(c3ncc(C=C4CN(CCCF)C4)cc3F)c3ccc(C(=O)O)cc3CCC2)CC1 [Compound 65, 8-(4,4-dimethylcyclohexyl)-9-(3-fluoro-5-((1-(3-fluoropropyl)azetidin-3-ylidene)methyl)pyridin-2-yl)-6,7-dihydro-5H-benzo[7]annulene-3-carboxylic acid] | 91% | 0.8 nM | – |
| Cc1ccc(C2=C(c3ccc(C=C4CN(CCCF)C4)cc3)c3ccc(C(=O)O)cc3CCC2)c(C(F)F)c1 [Compound 43, 8-(2-(difluoromethyl)-4-methylphenyl)-9-(4-((1-(3-fluoropropyl)azetidin-3-ylidene)methyl)phenyl)-6,7-dihydro-5H-benzo[7]annulene-3-carboxylic acid] | 91% | 0.5 nM | – |
| O=C(O)c1ccc2c(c1)CCCC(c1ccccc1CF)=C2c1ccc(C=C2CN(CCCF)C2)cc1 [Compound 32, 8-(2-(fluoromethyl)phenyl)-9-(4-((1-(3-fluoropropyl)azetidin-3-ylidene)methyl)phenyl)-6,7-dihydro-5H-benzo[7]annulene-3-carboxylic acid] | 91% | 0.3 nM | – |

Reference: patent US20250255848A1, “SUBSTITUTED 6,7-DIHYDRO-5H-BENZO[7]ANNULENE DERIVATIVES, PROCESSES FOR THEIR PREPARATION AND THERAPEUTIC USES THEREOF” (SANOFI, priority 2022, published 2025)
